In PubChem BioAssay (NCI):
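Method: 48-hour compound exposure of cells in 96-well plates, five concentrations, linear interpolation of endpoints. Abbreviation: GI50, concentration required for 50% inhibition of growth. TGI: total growth inhibition.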

Legend:
Assay in all cases: inhibition of tumour cell growth, NCI panel, 48 h
CCRF-CEM leukemia = system: CCRF-CEM leukemia
COLO 205 colon = system: COLO 205 colon
HCC-2998 colon = system: HCC-2998 colon
HOP-62 NSCLC = system: HOP-62 NSCLC
KM12 colon = system: KM12 colon
OVCAR-8 ovarian = system: OVCAR-8 ovarian
RPMI-8226 leukemia = system: RPMI-8226 leukemia
SF-268 CNS = system: SF-268 CNS
SK-MEL-28 melanoma = system: SK-MEL-28 melanoma
SK-MEL-5 melanoma = system: SK-MEL-5 melanoma

Structure (SMILES)	TGI (CCRF-CEM leukemia) [µM]	TGI (COLO 205 colon) [µM]	TGI (HCC-2998 colon) [µM]	TGI (HOP-62 NSCLC) [µM]	TGI (KM12 colon) [µM]	TGI (OVCAR-8 ovarian) [µM]	TGI (RPMI-8226 leukemia) [µM]	TGI (SF-268 CNS) [µM]	TGI (SK-MEL-28 melanoma) [µM]	TGI (SK-MEL-5 melanoma) [µM]	GI50 (CCRF-CEM leukemia) [µM]	GI50 (COLO 205 colon) [µM]	GI50 (HCC-2998 colon) [µM]	GI50 (HOP-62 NSCLC) [µM]	GI50 (KM12 colon) [µM]	GI50 (OVCAR-8 ovarian) [µM]	GI50 (RPMI-8226 leukemia) [µM]	GI50 (SF-268 CNS) [µM]	GI50 (SK-MEL-28 melanoma) [µM]	GI50 (SK-MEL-5 melanoma) [µM]
O=[N+]([O-])c1c(Br)cc(Br)c2c1Nc1c(ccc(Cl)c1Cl)S2	7.49	26.3	28.8	34.9	20.5	13.6	> 100	38.6	31.4	30.2	–	–	–	–	–	–	–	–	–	–
Oc1ccc(C(c2ccc(O)cc2)c2ccc(Cl)cn2)cc1	> 100	4.97	9.36	> 100	> 100	1.16	> 84.8	> 100	> 100	34.5	14.9	0.0416	0.279	33.7	0.463	0.0346	21.1	25.9	28	15.6
CC1OC(OCC2OC(Oc3c(-c4ccc(O)cc4)oc4cc(O)cc(O)c4c3=O)C(OC3OC(C)C(O)C(O)C3O)C(O)C2O)C(O)C(O)C1O (centres undefined)	> 83.5	> 72.7	> 100	> 100	> 100	> 100	> 81.3	> 100	> 100	> 100	–	–	–	–	–	–	–	–	–	–
CC(=O)NNc1nc(C)c(C(=O)NNC(=O)C(=O)Nc2c(C)cccc2C)s1	81.7	> 100	> 100	> 100	> 100	80.1	> 100	> 100	> 100	> 100	–	–	–	–	–	–	–	–	–	–
COc1cc(/C=C\c2ccccc2)cc(OC)c1OC	49.8	> 20.4	48.5	23.5	> 73.1	46.7	46.2	59.2	> 100	9.12	–	–	–	–	–	–	–	–	–	–
O=C(/C(=C\C(=O)c1cccs1)c1ccsc1)c1ccc(Br)cc1	> 100	> 100	> 100	> 100	> 100	> 100	> 100	> 100	> 100	> 100	–	–	–	–	–	–	–	–	–	–
COc1cc(CCN)c2c(c1OC)SSSSS2	–	0.0783	2.08	3.3	3.09	2.71	1.77	4.76	3.43	2.23	0.395	0.0184	0.384	1.81	1.64	1.22	0.287	1.95	1.79	0.712
FC(F)(F)c1cc(-c2nnc3n2N=C(N2CCCC2)CS3)cc(C(F)(F)F)c1	> 50	> 50	> 50	> 50	> 50	> 50	> 50	> 50	> 50	> 50	> 50	> 50	> 50	16.7	> 50	32.9	> 50	> 50	> 50	> 50
